Data published in paper PMC3734177, “Design, Synthesis, Evaluation and Thermodynamics of 1-Substituted Pyridylimidazo[1,5-a]Pyridine Derivatives as Cysteine Protease Inhibitors” (PLoS ONE, 2013).
Converted amounts (≈) assume the structure as drawn. “And” between values parts separate entries of the source, which are not always exact repeats. Equal entries are not always repeated. Where two headings read alike, the source gives them in different places.

Assays:
[1] = test system: Pseudomonas aeruginosa (ATCC-27853); experiment: MBC, sub cultivation from MIC plate; type: cell-based
Protocol: (§1) After having determined the MICs, bacterial strains from the wells of the microtitre plate with no visible bacterial growth were removed for serial sub cultivation of 2 µl into another new microtitre plate containing 100 µl of broth per well and further incubated for 24 h. The lowest concentration with no visible growth was defined as MBC [28], indicating 99.5% killing of the original inoculum. The absorbance of each well was measured at a wavelength of 620 nm by Microplate Manager 4.0 (Bio-Rad laboratories) and compared with a blank. Solvent (DMSO) was used as a negative control. Three replicates were done for each compound and experiment was repeated two times.

[2] = test system: Escherichia coli (ATCC-25922); experiment: MBC, sub cultivation from MIC plate; type: cell-based; conditions: ATCC25922, E. coli
Protocol: as §1

[3] = test system: Proteus vulgaris (ATCC-29905); experiment: MBC, sub cultivation from MIC plate; type: cell-based; conditions: ATCC29905, P. vulgaris
Protocol: as §1

[4] = test system: Staphylococcus aureus (ATCC-25923); experiment: MBC, sub cultivation from MIC plate; type: cell-based; conditions: ATCC25923, S. aureus
Protocol: as §1

[5] = test system: Pseudomonas aeruginosa (ATCC-27853); experiment: MIC, micro dilution method; type: cell-based; conditions: ATCC27853
Protocol: (§2) The disk diffusion method was used for the preliminary antibacterial evaluation of 1-pyridylimidazo[1,5-a]pyridine derivatives. The MIC50 of these derivatives, showing inhibition in the preliminary tests, were further determined by the microtitre plate technique using micro dilution method. In brief, the bacterial strains (S. aureus, P. vulgaris, Group D Streptococci, Bacillus sp., E. coli, P. aeruginosa and S. morganii)) were grown and diluted to 2×10^5 colony-forming units (CFU)/ml in sodium phosphate buffer (SPB) containing 0.03% Luria–Bertani (LB) broth. The synthesized derivatives were dissolved in DMSO and their serial dilution was performed in 50 µL of LB medium in 96-well microtitre plate to achieve the required concentrations (0.1–10 µg/ml) with bacterial inoculums (5×10^4 CFU per well). DMSO was taken as negative control and Ceftriaxone and clotrimazole were taken as positive control. After incubation at 37°C overnight, the MICs were taken as the lowest inhibitor concentration at which the bacterial growth was inhibited. The average of three values was calculated and that was the MIC for the test material and bacterial strain. […]

[6] = test system: Escherichia coli (ATCC-25922); experiment: MIC, micro dilution method; type: cell-based; conditions: ATCC25922, E. coli
Protocol: as §2

[7] = test system: Proteus vulgaris (ATCC-29905); experiment: MIC, micro dilution method; type: cell-based; conditions: ATCC29905, P. vulgaris
Protocol: as §2

[8] = test system: Staphylococcus aureus (ATCC-25923); experiment: MIC, micro dilution method; type: cell-based; conditions: ATCC25923, S. aureus
Protocol: as §2

papain [9] = target: T1, papain (Carica papaya, UniProt P00784); experiment: Cysteine protease inhibitory activity, papain with Bz-DL-Arg-pNA substrate; type: biochemical
T1 construct: To solutions of active papain (final concentration: 0.05 mM); purchased Sigma Chemical Co., St. Louis, MO, USA
T1 sequence (P00784 134-345): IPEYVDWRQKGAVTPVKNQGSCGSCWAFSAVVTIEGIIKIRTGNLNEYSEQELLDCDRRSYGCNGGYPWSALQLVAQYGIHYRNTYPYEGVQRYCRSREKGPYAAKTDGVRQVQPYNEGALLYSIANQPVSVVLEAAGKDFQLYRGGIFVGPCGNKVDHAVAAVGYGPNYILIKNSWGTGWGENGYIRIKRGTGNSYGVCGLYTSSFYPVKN
Protocol: The capacity of the 1-pyridylimidazo[1,5-a]pyridine derivatives to inhibit cysteine proteases was tested using papain as the model enzyme. The proteolytic activity of the reaction mixtures was determined using Bz-DL-Arg-pNA as the chromogenic substrate. To solutions of active papain (final concentration: 0.05 mM) were added concentrated solutions of the different derivatives to final concentrations of 0.2 mM. […] The same procedure was used at 32°C and 42°C for thermodynamics studies. The kinetic parameters for the substrate hydrolysis were determined by measuring the initial rate of enzymatic activity. The inhibition constant Ki was determined by Dixon method and also by the Lineweaver–Burk equation. The Km value was calculated from the double-reciprocal equation by fitting the data into the computer software Origin 6.1. The Lineweaver–Burk plot was used to determine the types of inhibition. For the kinetic analysis and rate constant determinations, the assays were carried out in triplicate, and the average value was considered throughout this work.

[10] = test system: Bacillus spp. (ATCC-14593); experiment: MIC, micro dilution method; type: cell-based; conditions: ATCC14593; Bacillus sp.
papain [11] = target: T1, papain; experiment: Thermodynamics analysis of papain inhibition (Van't Hoff); type: biochemical; conditions: Value at 37°C
Protocol: Free energy changes of inhibition of papain against 1- substituted pyridylimidazo[1,5-a] pyridine derivatives (ΔG) were determined by the equation, [drawing 1] (1)
Temperature dependence of the inhibition constants was used to determine the thermodynamic parameters. Changes in enthalpy (ΔH) were determined from the Van’t Hoff plots by using the equation, [drawing 2] (2)
Where ΔH is enthalpy change, R is gas constant, ΔS is entropy change and T is the absolute temperature. The entropy change was obtained from the equation, [drawing 3] (3)

[12] = test system: Bacillus spp. (ATCC-14593); experiment: MBC, sub cultivation from MIC plate; type: cell-based; conditions: ATCC14593, Bacillus sp.
Protocol: as §1

[13] = test system: Bacillus spp. (ATCC-14593); experiment: MIC, micro dilution method; type: cell-based; conditions: ATCC14593; Bacillus sp.; remark: listed apart in the source
Protocol: as §2

| SMILES | MBC ([1]; ATCC27853, read-out: MBC50) | MBC ([1]; ATCC27853, read-out: MBC90) | MBC ([2]; read-out: MBC50) | MBC ([2]; read-out: MBC90) | MBC ([3]; read-out: MBC50) | MBC ([3]; read-out: MBC90) | MBC ([4]; read-out: MBC50) | MBC ([4]; read-out: MBC90) | MIC50 [5] | MIC90 [5] | MIC50 [6] | MIC90 [6] | MIC50 [7] | MIC90 [7] | MIC50 [8] | MIC90 [8] | other results |
| --- | --- | --- | --- | --- | --- | --- | --- | --- | --- | --- | --- | --- | --- | --- | --- | --- | --- |
| Clc1ccccc1C(c1ccccc1)(c1ccccc1)n1ccnc1 [Clotrimazole, 1-[(2-chlorophenyl)(diphenyl)methyl]-1H-imidazole, reference compound] | 68 µg/mL (≈ 197 µM) | 134 µg/mL (≈ 389 µM) | 75 µg/mL (≈ 217 µM) | 144 µg/mL (≈ 418 µM) | 0.0014 µg/mL (≈ 0.00406 µM) | 0.0032 µg/mL (≈ 0.00928 µM) | 0.0014 µg/mL (≈ 0.00406 µM) | 0.003 µg/mL (≈ 0.0087 µM) | 40 µg/mL (≈ 116 µM) | 75 µg/mL (≈ 217 µM) | 45 µg/mL (≈ 130 µM) | 85 µg/mL (≈ 246 µM) | 0.00084 µg/mL (≈ 0.00244 µM) | 0.00145 µg/mL (≈ 0.0042 µM) | 0.0009 µg/mL (≈ 0.00261 µM) | 0.0016 µg/mL (≈ 0.00464 µM) |  |
| COc1ccc(-c2nc(-c3ccccn3)c3ccccn23)cc1 [Compound 3b, 1-(2-pyridyl)-3-(4-methoxyphenyl) imidazo[1,5-a]pyridine] | 2.1 µg/mL (≈ 6.97 µM) | 4 µg/mL (≈ 13.3 µM) | 1.9 µg/mL (≈ 6.3 µM) | 2.9 µg/mL (≈ 9.62 µM) | 1.6 µg/mL (≈ 5.31 µM) | 3.2 µg/mL (≈ 10.6 µM) | 2.3 µg/mL (≈ 7.63 µM) | 4.5 µg/mL (≈ 14.9 µM) | 1 µg/mL (≈ 3.32 µM) | 1.8 µg/mL (≈ 5.97 µM) | 1 µg/mL (≈ 3.32 µM) | 1.8 µg/mL (≈ 5.97 µM) | 0.8 µg/mL (≈ 2.65 µM) | 1.5 µg/mL (≈ 4.98 µM) | 1 µg/mL (≈ 3.32 µM) | 1.9 µg/mL (≈ 6.3 µM) | Ki (papain [9]; 32°C): 26.2 µM; Ki (papain [9]; 37°C): 23.2 µM; Ki (papain [9]; 42°C): 21.1 µM; Type of inhibition (papain [9]; Lineweaver–Burk plot): Competitive; IC50 (papain [9]; papain): 21.2 µM; MIC90 [10]: 1.7 µg/mL (≈ 5.64 µM); ΔG (free energy of binding) (papain [11]): −6.55 Kcalmol^−1 and −6.55(±0.33) Kcalmol^−1; ΔS (entropy change) (papain [11]): 71.4 (±2.46) Jmol-K^−1; ΔH (enthalpy change) (papain [11]; Van't Hoff plot): −5.3(±0.80) KJmol^−1; MBC ([12]; read-out: MBC50): 1.7 µg/mL (≈ 5.64 µM); MBC ([12]; read-out: MBC90): 3.2 µg/mL (≈ 10.6 µM); MIC50 [13]: 0.9 µg/mL (≈ 2.99 µM) |
